Measurements as given in article PMC9090415, “Discovery of small molecule inhibitors of Plasmodium falciparum apicoplast DNA polymerase” (Journal of Enzyme Inhibition and Medicinal Chemistry, 2022).
pIC50: −log10 of the molar value.

Target: P. falciparum apicoplast DNA polymerase (Pf-apPOL) (Plasmodium falciparum, UniProt Q8ILY1)
Experiment: Fluorescence-based high-throughput DNA polymerase assay (molecular beacon), primary screen and dose-response;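 on % inhibition ApPOL 90': test concentration in µM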;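 on % inhibition apPOL 180': test concentration in µM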
Type: biochemical
Outline: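 Single-point screening used 10 µM compound with 20 nM polymerase, 20 nM hairpin substrate and 6 µM dNTPs for 90 min at 25 °C. Confirmatory titrations (2.5–80 µM) followed fluorescence at three times, and IC50 was derived from a fit including a cooperativity term n.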

[1] = DRC-1; concentration 80 (unit not given); 10'
[2] = primary screen value of the 186 hits; unit not given; 90 min, 10 µM
[3] = primary screen value; head prints only 'DNA Pol'; 90 min, 10 µM
[4] = supplemental file 2, sheet IC50 nontoxic compounds; Pf-apPOL

Chain of P. falciparum apicoplast DNA polymerase (Pf-apPOL) (Q8ILY1 entry or part of it): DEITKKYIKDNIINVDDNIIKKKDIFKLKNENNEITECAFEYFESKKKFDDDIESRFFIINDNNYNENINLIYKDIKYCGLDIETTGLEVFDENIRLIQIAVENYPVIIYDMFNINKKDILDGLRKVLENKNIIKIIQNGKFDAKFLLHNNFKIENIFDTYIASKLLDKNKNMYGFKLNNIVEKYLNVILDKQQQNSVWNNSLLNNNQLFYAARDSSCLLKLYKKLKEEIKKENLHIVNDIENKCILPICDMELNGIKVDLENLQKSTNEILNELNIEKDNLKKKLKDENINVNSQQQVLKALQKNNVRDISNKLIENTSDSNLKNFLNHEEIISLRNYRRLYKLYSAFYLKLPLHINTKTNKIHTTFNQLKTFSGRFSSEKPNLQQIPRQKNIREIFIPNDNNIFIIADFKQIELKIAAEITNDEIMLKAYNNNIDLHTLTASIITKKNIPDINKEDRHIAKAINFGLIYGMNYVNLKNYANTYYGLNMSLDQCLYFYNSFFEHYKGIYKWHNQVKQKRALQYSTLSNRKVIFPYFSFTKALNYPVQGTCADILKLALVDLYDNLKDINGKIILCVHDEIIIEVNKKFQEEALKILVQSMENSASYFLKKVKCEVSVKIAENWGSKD

SMILES: O=C(Cc1cccs1)N1CCN(c2nc(CN3CCOCC3)cs2)CC1 [Molecule 35, O=C(N1CCN(CC1)c1scc(n1)CN1CCOCC1)Cc1cccs1]
- % inhibition Apo pol 10' (DRC-1; concentration 2.5; 10'): -2.34%
- % inhibition Apol 90' (DRC-1; concentration 2.5; 90'): -6%
- % inhibition apPOL 180' (DRC-1; concentration 2.5; 180'): -10%
- % inhibition Apo pol 10' (DRC-1; concentration 5; 10'): 14%
- % inhibition Apol 90' (DRC-1; concentration 5; 90'): 6.43%
- % inhibition apPOL 180' (DRC-1; concentration 5; 180'): -2.23%
- % inhibition Apo pol 10' (DRC-1; concentration 10; 10'): 46%
- % inhibition Apol 90' (DRC-1; concentration 10; 90'): 34%
- % inhibition apPOL 180' (DRC-1; concentration 10; 180'): 19%
- % inhibition Apo pol 10' (DRC-1; concentration 20; 10'): 76%
- % inhibition Apol 90' (DRC-1; concentration 20; 90'): 68%
- % inhibition apPOL 180' (DRC-1; concentration 20; 180'): 53%
- % inhibition Apo pol 10' (DRC-1; concentration 40; 10'): 83%
- % inhibition Apol 90' (DRC-1; concentration 40; 90'): 83%
- % inhibition apPOL 180' (DRC-1; concentration 40; 180'): 81%
- % inhibition Apo pol 10' [1]: 83%
- % inhibition Apol 90' (DRC-1; concentration 80; 90'): 86%
- % inhibition apPOL 180' (DRC-1; concentration 80; 180'): 88%
- % inhibition Apo pol 5' (DRC-2; 5'; concentration 2.5): 8%
- % inhibition Apo pol 5' (DRC-2; 5'; concentration 5): 19%
- % inhibition Apo pol 5' (DRC-2; 5'; concentration 10): 35%
- % inhibition Apo pol 5' (DRC-2; 5'; concentration 40): 46%
- % inhibition Apo pol 5' (DRC-2; 5'; concentration 80): 35%
- % inhibition ApPOL 90' (DRC-2; 90'; concentration 2.5): 8%
- % inhibition ApPOL 90' (DRC-2; 90'; concentration 40): 69%
- % inhibition apPOL 180' (DRC-2; 180'; concentration 40): 69%
- % inhibition Apo pol 5' (DRC-2; concentration 2.5; 5'): 8%
- % inhibition Apol 40' (DRC-2; concentration 2.5; 40'): 9%
- % inhibition ApPOL 90' (DRC-2; concentration 2.5; 90'): 8%
- % inhibition apPOL 180' (DRC-2; concentration 2.5; 180'): 1.49%
- % inhibition Apo pol 5' (DRC-2; concentration 5; 5'): 19%
- % inhibition Apol 40' (DRC-2; concentration 5; 40'): 22%
- % inhibition ApPOL 90' (DRC-2; concentration 5; 90'): 20%
- % inhibition apPOL 180' (DRC-2; concentration 5; 180'): 13%
- % inhibition Apo pol 5' (DRC-2; concentration 10; 5'): 35%
- % inhibition Apol 40' (DRC-2; concentration 10; 40'): 43%
- % inhibition ApPOL 90' (DRC-2; concentration 10; 90'): 41%
- % inhibition apPOL 180' (DRC-2; concentration 10; 180'): 31%
- % inhibition Apo pol 5' (DRC-2; concentration 20; 5'): 45%
- % inhibition Apol 40' (DRC-2; concentration 20; 40'): 61%
- % inhibition ApPOL 90' (DRC-2; concentration 20; 90'): 62%
- % inhibition apPOL 180' (DRC-2; concentration 20; 180'): 56%
- % inhibition Apo pol 5' (DRC-2; concentration 40; 5'): 46%
- % inhibition Apol 40' (DRC-2; concentration 40; 40'): 64%
- % inhibition ApPOL 90' (DRC-2; concentration 40; 90'): 69%
- % inhibition apPOL 180' (DRC-2; concentration 40; 180'): 69%
- % inhibition Apo pol 5' (DRC-2; concentration 80; 5'): 35%
- % inhibition Apol 40' (DRC-2; concentration 80; 40'): 59%
- % inhibition ApPOL 90' (DRC-2; concentration 80; 90'): 65%
- % inhibition apPOL 180' (DRC-2; concentration 80; 180'): 70%
- % inhibition Apo pol 10' (first dose-response set; 10'; concentration 10): 46%
- % inhibition Apo pol 10' (first dose-response set; 10'; concentration 40): 83%
- % inhibition Apo pol 10' (first dose-response set; 10'; concentration 80 (unit not given)): 83%
- % inhibition Apol 90' (first dose-response set; 90'; concentration 40): 83%
- % inhibition apPOL 180' (first dose-response set; 180'; concentration 10): 19%
- DNA Pol [2]: 37
- DNA Pol [3]: 37

SMILES: Oc1cccnc1/N=C/c1cc(I)cc(I)c1O [KU0073720]
- % inhibition Apo pol 10' (DRC-1; concentration 2.5; 10'): 24.1498%
- % inhibition Apol 90' (DRC-1; concentration 2.5; 90'): 12.6325%
- % inhibition apPOL 180' (DRC-1; concentration 2.5; 180'): 7.269%
- % inhibition Apo pol 10' (DRC-1; concentration 5; 10'): 35.1256%
- % inhibition Apol 90' (DRC-1; concentration 5; 90'): 18.9546%
- % inhibition apPOL 180' (DRC-1; concentration 5; 180'): 7.696%
- % inhibition Apo pol 10' (DRC-1; concentration 10; 10'): 54.1581%
- % inhibition Apol 90' (DRC-1; concentration 10; 90'): 35.5541%
- % inhibition apPOL 180' (DRC-1; concentration 10; 180'): 22.0989%
- % inhibition Apo pol 10' (DRC-1; concentration 20; 10'): 82.6757%
- % inhibition Apol 90' (DRC-1; concentration 20; 90'): 72.4882%
- % inhibition apPOL 180' (DRC-1; concentration 20; 180'): 62.032%
- % inhibition Apo pol 10' (DRC-1; concentration 40; 10'): 88.0061%
- % inhibition Apol 90' (DRC-1; concentration 40; 90'): 85.8588%
- % inhibition apPOL 180' (DRC-1; concentration 40; 180'): 82.0572%
- % inhibition Apo pol 10' [1]: 86.1265%
- % inhibition Apol 90' (DRC-1; concentration 80; 90'): 87.3428%
- % inhibition apPOL 180' (DRC-1; concentration 80; 180'): 87.5745%
- % inhibition Apo pol 5' (DRC-2; 5'; concentration 40): 63%
- % inhibition Apol 40' (DRC-2; 40'; concentration 20): 63%
- % inhibition Apo pol 5' (DRC-2; concentration 2.5; 5'): 26%
- % inhibition Apol 40' (DRC-2; concentration 2.5; 40'): 24%
- % inhibition ApPOL 90' (DRC-2; concentration 2.5; 90'): 22%
- % inhibition apPOL 180' (DRC-2; concentration 2.5; 180'): 15%
- % inhibition Apo pol 5' (DRC-2; concentration 5; 5'): 36%
- % inhibition Apol 40' (DRC-2; concentration 5; 40'): 33%
- % inhibition ApPOL 90' (DRC-2; concentration 5; 90'): 28%
- % inhibition apPOL 180' (DRC-2; concentration 5; 180'): 17%
- % inhibition Apo pol 5' (DRC-2; concentration 10; 5'): 51%
- % inhibition Apol 40' (DRC-2; concentration 10; 40'): 52%
- % inhibition ApPOL 90' (DRC-2; concentration 10; 90'): 49%
- % inhibition apPOL 180' (DRC-2; concentration 10; 180'): 37%
- % inhibition Apo pol 5' (DRC-2; concentration 20; 5'): 57%
- % inhibition Apol 40' (DRC-2; concentration 20; 40'): 63%
- % inhibition ApPOL 90' (DRC-2; concentration 20; 90'): 62%
- % inhibition apPOL 180' (DRC-2; concentration 20; 180'): 54%
- % inhibition Apo pol 5' (DRC-2; concentration 40; 5'): 63%
- % inhibition Apol 40' (DRC-2; concentration 40; 40'): 73%
- % inhibition ApPOL 90' (DRC-2; concentration 40; 90'): 75%
- % inhibition apPOL 180' (DRC-2; concentration 40; 180'): 74%
- % inhibition Apo pol 5' (DRC-2; concentration 80; 5'): 58%
- % inhibition Apol 40' (DRC-2; concentration 80; 40'): 72%
- % inhibition ApPOL 90' (DRC-2; concentration 80; 90'): 76%
- % inhibition apPOL 180' (DRC-2; concentration 80; 180'): 77%
- DNA Pol [2]: 46
- DNA Pol [3]: 46

SMILES: COc1ccc(C=C2Oc3c(ccc4c3CN(c3ccc5c(c3)OCO5)CO4)C2=O)cc1OC [KU0199426]
- % inhibition Apo pol 10' (DRC-1; 10'; concentration 2.5): 6.7092%
- % inhibition Apo pol 10' (DRC-1; 10'; concentration 5): 10.8011%
- % inhibition Apo pol 10' (DRC-1; 10'; concentration 10): 30.1784%
- % inhibition Apo pol 10' (DRC-1; 10'; concentration 20): 49.962%
- % inhibition Apo pol 10' (DRC-1; 10'; concentration 40): 63.2111%
- % inhibition Apo pol 10' (DRC-1; 10'; concentration 80): 69.0086%
- % inhibition Apol 90' (DRC-1; 90'; concentration 2.5): 9.888%
- % inhibition Apol 90' (DRC-1; 90'; concentration 5): 17.5134%
- % inhibition Apol 90' (DRC-1; 90'; concentration 10): 37.0525%
- % inhibition Apol 90' (DRC-1; 90'; concentration 20): 55.1818%
- % inhibition Apol 90' (DRC-1; 90'; concentration 40): 69.2799%
- % inhibition Apol 90' (DRC-1; 90'; concentration 80): 72.5355%
- % inhibition apPOL 180' (DRC-1; 180'; concentration 2.5): 14.753%
- % inhibition apPOL 180' (DRC-1; 180'; concentration 5): 23.9693%
- % inhibition apPOL 180' (DRC-1; 180'; concentration 10): 43.333%
- % inhibition apPOL 180' (DRC-1; 180'; concentration 20): 61.4424%
- % inhibition apPOL 180' (DRC-1; 180'; concentration 40): 79.6981%
- % inhibition apPOL 180' (DRC-1; 180'; concentration 80): 86.1468%
- % inhibition Apo pol 5' (DRC-2; 5'; concentration 2.5): 6.46%
- % inhibition Apo pol 5' (DRC-2; 5'; concentration 5): 7.39%
- % inhibition Apo pol 5' (DRC-2; 5'; concentration 10): 27%
- % inhibition Apo pol 5' (DRC-2; 5'; concentration 20): 45%
- % inhibition Apo pol 5' (DRC-2; 5'; concentration 40): 42%
- % inhibition Apo pol 5' (DRC-2; 5'; concentration 80): 45%
- % inhibition Apol 40' (DRC-2; 40'; concentration 2.5): 6%
- % inhibition Apol 40' (DRC-2; 40'; concentration 5): -2.71%
- % inhibition Apol 40' (DRC-2; 40'; concentration 10): 30%
- % inhibition Apol 40' (DRC-2; 40'; concentration 20): 63%
- % inhibition Apol 40' (DRC-2; 40'; concentration 40): 43%
- % inhibition Apol 40' (DRC-2; 40'; concentration 80): 44%
- % inhibition ApPOL 90' (DRC-2; 90'; concentration 2.5): 4.67%
- % inhibition ApPOL 90' (DRC-2; 90'; concentration 5): -12%
- % inhibition ApPOL 90' (DRC-2; 90'; concentration 10): 27%
- % inhibition ApPOL 90' (DRC-2; 90'; concentration 20): 69%
- % inhibition ApPOL 90' (DRC-2; 90'; concentration 40): 41%
- % inhibition ApPOL 90' (DRC-2; 90'; concentration 80): 43%
- % inhibition apPOL 180' (DRC-2; 180'; concentration 2.5): -0.788%
- % inhibition apPOL 180' (DRC-2; 180'; concentration 5): -86%
- % inhibition apPOL 180' (DRC-2; 180'; concentration 10): 16%
- % inhibition apPOL 180' (DRC-2; 180'; concentration 20): 76%
- % inhibition apPOL 180' (DRC-2; 180'; concentration 40): 34%
- % inhibition apPOL 180' (DRC-2; 180'; concentration 80): 39%
- % inhibition Apo pol 5' (conc. 10; 5'; DRC-2): 27%
- % inhibition ApPOL 90' (conc. 10; 90'; DRC-2): 27%
- % inhibition Apo pol 5' (conc. 20; 5'; DRC-2): 45%
- % inhibition Apol 40' (conc. 40; 40'; DRC-2): 43%
- % inhibition Apo pol 5' (conc. 80; 5'; DRC-2): 45%
- % inhibition ApPOL 90' (conc. 80; 90'; DRC-2): 43%
- DNA Pol (primary screen value by plate and well; 90 min, 10 µM): 28
- DNA Pol [2]: 28

SMILES: CC(C)(C)OC(=O)COc1ccc2cc(-c3ccccc3)c(=O)oc2c1 [Molecule 81]
- pIC50 [4]: 4.46

SMILES: O=C(O)c1cccc(N2N=C(C(F)(F)F)/C(=C/c3ccc(-c4ccccc4[N+](=O)[O-])o3)C2=O)c1 [Molecule 100]
- pIC50 [4]: 5.02
